Columns and labels:
[1] = test system: E. coli and two Streptococcus Spp.; conditions: disk tests
[2] = Lysozyme activity of fractions; assay type: biochemical
Protocol: For this Exarnple, egg white was collected from 2,000 eggs (about 50 L) and diluted in ice-cold distilled water, up to 150 L. All manipulations were done at 4° C. The solution was filtered and introduced into a 4 L apparatus according to the present invention, and having three working outflow ports (plus two electrode outflows). The contifocuser was initially filled with distilled water. The flow rate was adjusted at 75 ml/min, a DC 1,000 Volts was established, and the initial power of the system was 1.5 W. After adding the crude egg white suspension, the power raised to 10.5 W. The contifocusing lasted 34 hrs. […] This suspension was gradually introduced into a 1 L contifocuser with three working and two electrode outflow ports. The flow rate with distilled water was adjusted at 10 ml/min, 1,000 V/DC. […] The contifocusing lasted 3 days. The outflow nearest to the cathode, at pH 10.5, was collected. […] This fraction of 12 L was thereafter introduced in four fractions onto 200×1500 mm chromatographic columns packed by a molecular sieving gel, Spheron P-200, and 25 ml fractions were collected.

## CN(C)[C@@H]1C(=O)C(C(N)=O)=C(O)[C@@]2(O)C(=O)C3=C(O)c4c(O)cccc4[C@@](C)(O)[C@H]3C[C@@H]12 [original material, Tetracyclin]
[1]
  inhibition: 85%

## lysozyme: enzyme isolated from egg white by contifocusing
[2]; first peak after Spheron P-200 gel chromatography
  protein-splitting activity: 20,000 U/g
[2]; outflow at pH 10.5 after first contifocusing run
  lysozyme concentration (activity): 200 U/ml
